Measured values: patent US20070167466A1, “"Pyrazolo [4,3-d]pyrimidines, processes for their preparation and methods of use"” (priority 2003, published 2007)
pIC50: −log10 of the molar value. Like-named read-outs stand apart in the source and are kept apart here.

Legend:
[1] = molecular target: T1, CDK1 (p34^cdc2, cyclin B) (Homo sapiens, UniProt P06493); assay: CDK inhibition assay, p34^cdc2 kinase, histone H1 phosphorylation; assay type: biochemical; details: 15 μM ATP, histone H1, 30° C.
T1 construct: made in house; host or cells: Sf9 insect cells (baculovirus co-infection)
Procedure: The controls contain suitable dilutions of DMSO.
2-glycerolphosphate, 1 mM NaF, 1 mM DTT

MMK1 protein kinase = MMK1 protein kinase (Vicia faba, UniProt A0AAV1B7B8); assay: Plant MMK1 protein kinase inhibition assay; assay type: biochemical; details: plant kinase purified from Vicia faba extracts
Procedure: Protein extraction and purification of pant CDK by binding to p13^suc1-beads or immunopurification with an antibody specific to the cdc2a-MS protein was carried out as described previously (Bögre et al. 1997, Plant Physiol. 113, 1997, 841-852). The MMK1 protein kinase was purified with a specific antibody from Vicia faba extracts as described by Bögre et al. 1997a, Plant Cell 9, 75-83). Protein kinase activity was measured as described above in Example 19. The quantification of radioactivity incorporated into histone H1 or myelin basic protein was undertaken using Phosphoimager (original gel images shown on FIG. 1). IC50 were calculated from dose-response curves. The drugs inhibited the activity of immunopurified Vicia faba and alfalfa Cdc2-kinase. […] In contrast to the regular bipolar spindle in untreated cell, in drug-treated metaphase cells abnormally short and dense kinetochore microtubule fibres were observed. These microtubules were randomly arranged in the vicinity of the kinetochores and connected the chromosomes. Thus the chromosomes were not aligned on the metaphase plate but were arranged in a circle, with kinetochores pointing inwards and chromosome arms pointing outwards. γ-tubulin, which plays a role in microtubule nucleation, also localised to the centre of the monopolar spindle.

[2] = molecular target: CDK2 (p33^cdk2, cyclin E) (Homo sapiens, UniProt P24941); assay: CDK inhibition assay, p33^cdk2 kinase, histone H1 phosphorylation;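 also: Baculovirus-expressed kinase/cyclin complex from Sf9 cell extract, 10 min at 30 °C, phosphoproteins separated by SDS gel and quantified by image analysis, activity relative to DMSO control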
Procedure: Cyclin-dependent kinases (p34^cdc2, p33^cdk2) and cyclins (cyclin B, E) are produced in Sf9 insect cells coinfected with appropriate baculoviral constructs. The cells are harvested 68-72 hrs post infection in lysis buffer for 30 min on ice and the soluble fraction is recovered by centrifugation at 14.000 g for 10 min. The protein extract is stored at −80° C.
Lysis buffer: 50mM Tris pH 7.4, 150mM NaCl, 5 mM EDTA, 20 mM NaF, 1% Tween, 1 mM DTT, 0.1 mM PMSF, leupeptine, aprotonine.
To carry out experiments on kinetics under linear conditions, the final point test system for kinase activity measurement is used. The kinase is added to reaction mixture in such a way as to obtain linear activity with respect to the concentration of enzyme and with respect to time.
Kinase activity is determined at 30° C. in the kinase buffer.
Tested compounds are usually dissolved to 100 mM solutions in DMSO, final concentration of DMSO in reaction mixture never exceeds 1%. The controls contain suitable dilutions of DMSO.
After 10 min, addition 3×SDS sample buffer stops the incubations. Phosphorylated proteins are separated electrophoretically using 10% SDS polyacrylamide gel. The measurement of kinase activity is done using digital image analysis.
The kinase activity is expressed as a percentage of maximum activity, the apparent inhibition constants are determined by graphic analysis.
Kinase buffer: 50 mM Hepes pH 7.4, 10 mM MgCl2, 5 mM EGTA, 10 mM

[3] = molecular target: CDC2a (cdc2a-MS protein, plant Cdc2-kinase) (Medicago sativa, UniProt P24923); assay type: biochemical
Procedure: (§1) Enzyme activity bound to p13^suc1-agarose was measured by phosphorylation of histone H1 substrate protein in the presence of various concentrations of (1) 7-furfurylamino-3-methylpyrazolo[4,3-d]pyrimidine, (2) 7-benzylamino-3-isopropylpyrazolo[4,3-d]pyrimidine, (3) 7-(3-chloroanilino)-3-isopropylpyrazolo[4,3-d]pyrimidine, (4) 7-(3-hydroxybenzyl)amino-3-isopropylpyrazolo[4,3-d]pyrimidine.
(§2) The quantification of radioactivity incorporated into histone H1 or myelin basic protein was undertaken using Phosphoimager (original gel images shown on FIG. 1). IC50 were calculated from dose-response curves.

[4] = test system: MCF7 (human breast adenocarcinoma); assay: In vitro cytotoxic activity, Calcein AM, three days; assay type: cell-based
Procedure: (§3) We have been using the following cell lines: HELA (human cervical carcinoma), MCF7 (human breast adenocarcinoma), NIH 3T3 (mouse fibroblasts), HOS (human osteogenic sarcoma), HL 60 (human promyelocytic leukemia), G 361 (human malignant melanoma), K562 (human chronic myeloblastic leukemia), CEM (human lymphoblastoid leukaemia). Tested drugs were added to the cell cultures in six different concentration and kept at 37° C. and 5% CO2 for three days. All cell lines were grown in DMBM medium (Gibco BRL) supplemented with 10% (v/v) fetal bovine serum and L-glutamine and maintained at 37° C. in a humidified atmosphere with 5% CO2. 10^4 cells were seeded into each well of 96 well plate, allowed to stabilize for at least 2 h and then tested compounds were added at various concentrations ranging from 200 to 0.2 μM in triplicates. Three days after drug addition Calcein AM solution (Molecular Probes) was added and let to enter the cells for 1 hour. Fluorescence of viable cells was quantified employing Fluoroskan Ascent (Microsystems).

[5] = test system: K562 (human chronic myeloblastic leukemia); assay: as above; assay type: cell-based; details: read-out: K-562 IC50
Procedure: as §3

[6] = test system: CDC2a (cdc2a-MS protein, plant Cdc2-kinase); assay type: biochemical; details: enzyme bound to p13^suc1-agarose, histone H1, various concentrations
Procedure: as §1, §2

[7] = test system: Cytokinin-dependent tobacco callus Nicotiana tabacum L. cv. Wisconsins 38; assay: Tobacco callus bioassay for cytotoxicity (herbicidal activity); assay type: cell-based; details: Nicotiana tabacum, 672 h, four weeks
Procedure: The compounds to be tested were dissolved in dimethylsulfoxide (DMSO) and the solution brought up to 10^−3 M with distilled water. […] Cytokinin-dependent tobacco callus Nicotiana tabacum L. cv. […] Subcultivation was carried out every three weeks. Fourteen days before the bioassay, the callus tissue was transferred to the media without 6-benzylaminopurine. Compounds were tested with two different concentrations of 6-benzylaminopurine (10^−5 M and 10^−6 M). Inhibitory growth activity was determined from the increase in fresh callus weight after four weeks of cultivation. Five replicates were prepared for each concentration tested and the entire test was repeated at least twice.

[8] = test system: root meristem cells of V. faba; assay: Antimitotic and apoptotic effects in plant root meristem cells; assay type: cell-based, Vicia faba; details: high doses
[9] = read-out: CDK2 IC50, 15 μM ATP, histone H1, 30° C.
[10] = read-out: IC50, growth of tobacco callus, 10^−5 M BAP, 10^−5 M 6-benzylaminopurine
[11] = 10^−6 M 6-benzylaminopurine, read-out: IC50, growth of tobacco callus, 10^−6 M BAP

Sequence of CDC2a (cdc2a-MS protein, plant Cdc2-kinase) (Medicago sativa, UniProt P24923) (P24923 whole entry): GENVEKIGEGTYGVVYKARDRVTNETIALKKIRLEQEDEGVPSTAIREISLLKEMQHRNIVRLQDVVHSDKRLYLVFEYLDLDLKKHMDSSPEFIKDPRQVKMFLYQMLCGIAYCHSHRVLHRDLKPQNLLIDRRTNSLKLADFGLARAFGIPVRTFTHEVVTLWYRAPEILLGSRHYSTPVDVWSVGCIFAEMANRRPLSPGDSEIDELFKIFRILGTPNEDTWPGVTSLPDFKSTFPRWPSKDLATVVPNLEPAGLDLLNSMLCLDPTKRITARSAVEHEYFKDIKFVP
Sequence of MMK1 protein kinase (A0AAV1B7B8 entry or part of it): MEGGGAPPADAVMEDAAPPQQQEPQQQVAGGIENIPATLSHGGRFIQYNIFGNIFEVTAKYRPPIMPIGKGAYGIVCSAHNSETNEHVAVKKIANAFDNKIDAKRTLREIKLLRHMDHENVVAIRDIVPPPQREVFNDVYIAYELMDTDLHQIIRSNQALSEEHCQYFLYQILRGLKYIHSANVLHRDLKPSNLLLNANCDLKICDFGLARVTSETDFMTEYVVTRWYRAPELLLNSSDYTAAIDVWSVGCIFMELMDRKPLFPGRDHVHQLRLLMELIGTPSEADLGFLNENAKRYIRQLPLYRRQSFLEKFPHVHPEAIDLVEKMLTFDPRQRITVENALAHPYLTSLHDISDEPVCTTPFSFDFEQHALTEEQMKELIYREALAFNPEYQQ
T1 sequence (P06493 whole entry, species assumed): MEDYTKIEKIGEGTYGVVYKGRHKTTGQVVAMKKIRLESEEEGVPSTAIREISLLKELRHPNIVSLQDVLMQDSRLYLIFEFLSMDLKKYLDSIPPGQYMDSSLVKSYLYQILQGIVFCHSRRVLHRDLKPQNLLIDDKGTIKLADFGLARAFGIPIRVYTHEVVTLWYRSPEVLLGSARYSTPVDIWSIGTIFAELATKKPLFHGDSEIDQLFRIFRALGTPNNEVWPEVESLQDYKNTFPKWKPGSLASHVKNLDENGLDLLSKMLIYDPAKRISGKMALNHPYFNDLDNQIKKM
T1 sequence (P14635 whole entry partner, species assumed): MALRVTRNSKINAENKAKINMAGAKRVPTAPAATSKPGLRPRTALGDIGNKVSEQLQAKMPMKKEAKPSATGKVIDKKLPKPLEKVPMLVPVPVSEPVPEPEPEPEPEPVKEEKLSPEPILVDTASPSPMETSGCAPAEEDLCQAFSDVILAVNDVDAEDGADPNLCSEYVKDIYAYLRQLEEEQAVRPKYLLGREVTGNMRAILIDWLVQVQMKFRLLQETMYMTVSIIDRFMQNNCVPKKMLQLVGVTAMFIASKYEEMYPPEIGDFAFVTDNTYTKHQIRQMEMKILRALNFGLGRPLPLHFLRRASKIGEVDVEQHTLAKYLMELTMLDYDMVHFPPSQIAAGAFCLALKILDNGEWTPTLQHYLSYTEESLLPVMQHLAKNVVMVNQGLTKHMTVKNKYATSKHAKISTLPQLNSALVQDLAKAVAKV

| Structure (SMILES) | pIC50 [1] | pIC50 (MMK1 protein kinase) | pIC50 [2, 9] | pIC50 [3] | pIC50 [4] | pIC50 [5] | inhibition of plant cdc2 kinase activity (FIG. 1) [6] | pIC50 [2] | pIC50 ([4]; Homo sapiens, MCF7, 72 h) | pIC50 ([5]; Homo sapiens, K562, 72 h) | pIC50 [7, 10] | pIC50 [7, 11] | melting point | apoptosis in plant cells [8] |
| --- | --- | --- | --- | --- | --- | --- | --- | --- | --- | --- | --- | --- | --- | --- |
| Cc1n[nH]c2c(NCc3ccccc3Cl)ncnc12 [2-chlorobenzylamino / methyl] | 4.60 | 4.60 | 4.62 | – | – | – | – | – | – | – | – | – | – | – |
| CC(C)c1n[nH]c2c(Nc3ccc(Cl)c(C(=O)O)c3)ncnc12 [3-carboxy-4-chloroanilino / isopropyl] | 5.55 | 5.77 | 5.54 | 5.80 | 6.40 | 6.00 | – | – | – | – | – | – | – | – |
| Cc1n[nH]c2c(Nc3ccc(N)c(Cl)c3)ncnc12 [3-chloro-4-aminoanilino / methyl] | 4.59 | 4.49 | 4.55 | 4.52 | – | – | – | – | – | – | – | – | – | – |
| CC(C)c1n[nH]c2c(Nc3cccc(Cl)c3)ncnc12 [3-chloroanilino / isopropyl, 7-(3-chloroanilino)-3-isopropylpyrazolo[4,3-d]pyrimidine] | 5.70 | – | – | – | – | – | specific inhibition | 6.10 | 5.05 | 4.92 | 4.47 | 5.09 | – | – |
| Cc1n[nH]c2c(Nc3cccc(Cl)c3)ncnc12 [3-chloroanilino / methyl] | 4.85 | 5.02 | 4.80 | 5.00 | 4.62 | 4.46 | – | – | – | – | – | – | – | – |
| CC(C)c1n[nH]c2c(NCc3cccc(O)c3)ncnc12 [3-hydroxybenzylamino / isopropyl, 7-(3-hydroxybenzylamino)-3-isopropylpyrazolo[4,3-d]pyrimidine] | 5.96 | – | – | – | – | – | specific inhibition | 6.05 | 3.98 | 3.88 | – | – | – | – |
| CC(C)c1n[nH]c2c(NC3CCCCC3N)ncnc12 (stereo not drawn) [(2-aminocyclohexyl)amino / isopropyl] | < 4.00 | < 4.00 | < 4.00 | < 4.00 | < 3.78 | < 3.78 | – | – | – | – | – | – | – | – |
| CC(C)c1n[nH]c2c(NCc3ccccc3)ncnc12 [benzylamino / isopropyl, 7-benzylamino-3-isopropylpyrazolo[4,3-d]pyrimidine] | 5.89 | – | – | – | – | – | specific inhibition | 6.30 | 4.26 | 4.14 | 4.62 | 5.19 | 153 to 154 °C | – |
| Cc1n[nH]c2c(NCc3ccco3)ncnc12 [furfurylamino / methyl, 7-furfurylamino-3-methylpyrazolo[4,3-d]pyrimidine] | 4.74 | – | – | – | – | – | specific inhibition | 4.80 | 3.85 | < 3.78 | – | – | – | – |
| CC[C@H](CO)Nc1nc(NCc2ccccc2)c2ncn(C(C)C)c2n1 [roscovitine] | – | – | – | – | – | – | – | – | – | – | – | – | – | induced apoptosis |
